In paper PMC10238281 (International Journal of Biological Macromolecules, 2023):

What was measured:
SARS2-S pseudovirus = assay: microbe, parasite or virus in culture; format: cell-based, SARS-CoV-2; conditions: for activity at 2 µM: A549-ACE2, 72 h, read-out: Luciferase ratio (%), 2 μM
[1] = Tissue distribution / pharmacokinetics in female ICR mice; format: in vivo
spike RBD protein = spike RBD protein (Severe acute respiratory syndrome coronavirus 2, UniProt P0DTC2); format: binding, SARS-CoV-2

CN1CCN(c2ccc(-c3cnc4[nH]cc(C(=O)c5ccc(F)cc5)c4c3)cc2)CC1 [ASM-2, (4-Fluorophenyl)(5-(4-(4-methylpiperazin-1-yl)phenyl)-1H-pyrrolo[2,3-b]pyridin-3-yl)methanone]
activity at 2 µM (SARS2-S pseudovirus; Pseudovirus): < 25%

COc1ccc(C(=O)c2c[nH]c3ncc(-c4ccc(N5CCNCC5)nc4)cc23)cc1 [ASM-4, (4-Methoxyphenyl)(5-(6-(piperazin-1-yl)pyridin-3-yl)-1H-pyrrolo[2,3-b]pyridin-3-yl)methanone]
activity at 2 µM (SARS2-S pseudovirus; Pseudovirus): < 25%

O=C(c1ccc(F)cc1)c1c[nH]c2ncc(-c3ccc(N4CCNCC4)nc3)cc12 [ASM-7, (4-Fluorophenyl)(5-(6-(piperazin-1-yl)pyridin-3-yl)-1H-pyrrolo[2,3-b]pyridin-3-yl)methanone]
Fold advantage of EC50 over G7a (SARS2-S pseudovirus): 20 fold
EC50 (SARS2-S pseudovirus; Pseudovirus, A549-ACE2, read-out: EC50, inhibition of SARS2-S pseudovirus entry): 450 nM
Organ distribution (heart, liver, spleen, lung, kidney, brain) ([1]; female ICR mice, 1 h after oral administration (30 mg/kg)): favorable targetability towards the lung
Blood versus lung concentration ([1]; female ICR mice, intravenous administration, 5 min): concentration of ASM-7 in the lung was substantially higher
Detection in the lung after oral administration ([1]; female ICR mice, oral, 4 h): could still be detected in the lung
concentration at 5 min ([1]; female, ICR, mouse, lung, iv, 3 mg/kg): 30000 ng/g

O=C(c1cccc(F)c1)c1c[nH]c2ncc(-c3ccc(N4CCNCC4)nc3)cc12 [ASM-9, (3-Fluorophenyl)(5-(6-(piperazin-1-yl)pyridin-3-yl)-1H-pyrrolo[2,3-b]pyridin-3-yl)methanone]
activity at 2 µM (SARS2-S pseudovirus; Pseudovirus): < 25%

O=C(CCCCC1SCC2NC(=O)NC21)NCCCCCC(=O)N1CCN(c2ccc(-c3cnc4[nH]cc(C(=O)c5ccc(F)cc5)c4c3)cn2)CC1 (centres unmarked) [Biotin-ASM-7, N-(6-(4-(5-(3-(4-Fluorobenzoyl)-1H-pyrrolo[2,3-b]pyridin-5-yl)pyridin-2-yl)piperazin-1-yl)-6-oxohexyl)-5-(2-oxohexahydro-1H-thieno[3,4-d]imidazol-4-yl)pentanamide]
Binding / pull-down of spike RBD protein by streptavidin IP (spike RBD protein): could pull down the spike RBD protein

O=C(CCCCC1SCC2NC(=O)NC21)NCCCCCC(=O)N1CCN(c2ccc(-c3cnc4[nH]c(/C=C/c5ccccc5O)nc4c3)cn2)CC1 (centres unmarked) [Biotin-G7a, (E)-N-(6-(4-(5-(2-(2-Hydroxystyryl)-3H-imidazo[4,5-b]pyridin-6-yl)pyridin-2-yl)piperazin-1-yl)-6-oxohexyl)-5-(2-oxohexahydro-1H-thieno[3,4-d]imidazol-4-yl)pentanamide]
Binding / pull-down of spike RBD protein by streptavidin IP (spike RBD protein): retained the ability to bind spike RBD protein
